Data reported in patent US20250282834A1, “PEPTIDE INHIBITORS FOR CHROMODOMAIN HELICASE DNA BINDING PROTEIN 4 (CHD4)” (THE REGENTS OF THE UNIVERSITY OF CALIFORNIA, priority 2022, published 2025).
Non-standard residues stand in square brackets, D forms with d. Residues, ends and D or L forms follow the SMILES beside them. No end group written: not given here. *: point of attachment. Orn = NCCC[C@H](N)C(=O)O; Cbz = O=C(OCc1ccccc1)*; βAla = NCCC(=O)O; CH2F = FC*

Assays:
[1] = system: primary effusion lymphoma (PEL) cells (BC3, BCBL-1); type: cell-based
Description: FIG. 4 VGN73 inhibits cell growth on various cancer cell types and induces apoptosis and autophagy in BC3 cells. FIG. 4a. MT assays were performed with the indicated cell lines treated with various VGN73 and mutant peptide concentrations for 24 hours. The OD of mock-treated samples were set as 100%, and OD from detergent-treated cells were set as 0%. Mean percentage viability±SD was calculated for each treatment (n=3 samples/treatment). FIG. 4b. VGN73 induces apoptosis. BC3 cells were incubated with of VGN73 (18 μM) for 0, 1, 4, and 24 hours, followed by measurements of percentage apoptosis induction (Annexin V staining) by flow cytometry. Median percentage apoptosis was calculated for each treatment time (n=3 samples/treatment time) (a). […] Cleaved caspase 3 were calculated by normalizing to untreated sample, and untreated sample set as 100% (b). […] Median percentage apoptosis was calculated for each treatment time (n=3 samples/treatment) (a). […] ratios were calculated by normalizing to untreated sample, and untreated sample set as 100% (b). […] Cell viability were determined by MTT assay (n=5 samples/treatment). *; p<0.05. **; p<0.01 versus the control group, #; p<0.05 versus the Z-VAD-FMK group.
The cytotoxic activity of VGN73 and mutant peptide were measured using the MTT assay. […] The optical densities (ODs) were measured at 570 nm with a Benchmark Plus Microplate Spectrophotometer (Bio-Rad). […]

[2] = target: T1, CHD4 (Homo sapiens, UniProt Q14839); assay: CHD4 and LANA protein expression by IFA and western blotting in PEL cells; type: cell-based; details: for recovery of full-length CHD4 by inhibitor pretreatment before VGN73: BC3 cells, Z-VAD-FMK 50 μM or bortezomib 25 nM 1 hour, then VGN73 18 μM 8 hours
T1 construct: endogenous in cells; host or cells: BC3, BCBL-1
T1 sequence (Q14839 whole entry): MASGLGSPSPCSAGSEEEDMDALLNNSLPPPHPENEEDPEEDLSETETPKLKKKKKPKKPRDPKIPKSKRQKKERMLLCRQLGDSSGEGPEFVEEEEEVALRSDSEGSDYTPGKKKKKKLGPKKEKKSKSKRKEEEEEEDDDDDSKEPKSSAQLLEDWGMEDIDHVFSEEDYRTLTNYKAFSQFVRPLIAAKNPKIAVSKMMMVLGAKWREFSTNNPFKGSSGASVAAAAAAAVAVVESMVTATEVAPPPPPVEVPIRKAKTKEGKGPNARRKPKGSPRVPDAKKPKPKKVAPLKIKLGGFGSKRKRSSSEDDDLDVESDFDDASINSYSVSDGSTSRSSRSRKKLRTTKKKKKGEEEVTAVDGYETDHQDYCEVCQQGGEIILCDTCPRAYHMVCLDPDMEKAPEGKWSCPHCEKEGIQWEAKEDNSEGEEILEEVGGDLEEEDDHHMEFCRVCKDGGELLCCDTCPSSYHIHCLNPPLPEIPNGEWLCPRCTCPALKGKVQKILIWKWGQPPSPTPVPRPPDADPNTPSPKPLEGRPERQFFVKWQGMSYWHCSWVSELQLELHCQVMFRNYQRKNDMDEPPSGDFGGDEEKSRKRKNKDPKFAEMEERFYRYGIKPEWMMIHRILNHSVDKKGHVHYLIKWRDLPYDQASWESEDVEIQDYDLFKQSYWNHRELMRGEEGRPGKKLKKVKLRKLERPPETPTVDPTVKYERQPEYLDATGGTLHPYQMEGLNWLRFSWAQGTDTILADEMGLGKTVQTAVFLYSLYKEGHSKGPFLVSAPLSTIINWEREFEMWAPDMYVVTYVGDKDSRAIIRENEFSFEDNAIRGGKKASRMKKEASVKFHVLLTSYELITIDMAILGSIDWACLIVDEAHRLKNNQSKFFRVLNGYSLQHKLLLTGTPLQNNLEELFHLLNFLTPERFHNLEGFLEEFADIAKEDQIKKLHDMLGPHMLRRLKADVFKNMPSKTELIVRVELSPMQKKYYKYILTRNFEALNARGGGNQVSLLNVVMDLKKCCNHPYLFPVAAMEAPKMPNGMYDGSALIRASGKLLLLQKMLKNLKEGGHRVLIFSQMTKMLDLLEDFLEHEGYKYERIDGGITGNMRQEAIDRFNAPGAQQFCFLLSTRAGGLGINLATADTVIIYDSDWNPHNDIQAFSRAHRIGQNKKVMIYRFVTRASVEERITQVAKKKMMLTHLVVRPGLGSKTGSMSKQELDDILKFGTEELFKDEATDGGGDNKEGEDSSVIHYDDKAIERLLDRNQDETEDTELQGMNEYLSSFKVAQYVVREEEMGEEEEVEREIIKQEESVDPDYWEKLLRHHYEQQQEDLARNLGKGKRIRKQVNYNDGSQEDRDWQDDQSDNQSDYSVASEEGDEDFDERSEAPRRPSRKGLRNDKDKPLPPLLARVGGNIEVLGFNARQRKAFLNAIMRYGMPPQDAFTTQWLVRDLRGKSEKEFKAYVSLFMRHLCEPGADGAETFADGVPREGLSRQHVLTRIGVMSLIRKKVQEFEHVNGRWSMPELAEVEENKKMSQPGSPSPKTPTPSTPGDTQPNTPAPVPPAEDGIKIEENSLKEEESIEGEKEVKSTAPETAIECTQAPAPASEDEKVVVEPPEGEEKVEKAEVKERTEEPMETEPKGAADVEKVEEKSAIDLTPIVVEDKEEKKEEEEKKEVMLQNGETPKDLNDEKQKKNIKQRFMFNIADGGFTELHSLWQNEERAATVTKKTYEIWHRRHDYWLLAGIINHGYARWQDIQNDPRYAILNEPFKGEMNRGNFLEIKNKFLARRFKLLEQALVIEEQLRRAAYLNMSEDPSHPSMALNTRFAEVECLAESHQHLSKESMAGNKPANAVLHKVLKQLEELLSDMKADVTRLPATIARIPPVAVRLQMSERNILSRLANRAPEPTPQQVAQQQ
Description: FIG. 3 Effect of VGN73 on CHD4 and LANA protein in tissue culture. FIG. 3. Amount of CHD4 and LANA protein expression was evaluated by IFA. BC3 cells were treated with VGN73 (18 μM) or mutant peptide (18 μM) for 24 hours. Then the cells were stained with the indicated antibodies. The scale is indicated in the panel. Cell volume. CHD4 and LANA signal intensity were compared. **; p<0.01, ***; p<0.001 versus the VGN73 group. FIG. 3b. Amount of CHD4 and LANA protein expression in total cell lysates was evaluated by western blotting. BC3 and BCBL-1 cells were treated with VGN73 at a concentration of IC50 or starved condition for 24 hours. The respective protein band was confirmed by immunoblotting with anti-CHD4 and anti-LANA antibody. FIG. 3c. Evaluating of caspase and proteasome in CHD4 cleavage by VGN73. BC3 cells were pretreated with pan-caspase inhibitor. Z-VAD-FMK (50 μM) or proteasome inhibitor, bortezomib (25 nM) for 1 hour, followed by treated with VGN73 (18 μM) for 8 hours. The respective protein band was confirmed by immunoblotting with anti-CHD4 antibody.
BC3 cells and BCBL-1 cells were treated with VGN73 at the concentration of IC50 for 24 hours. These cells were also treated with VGN73 in media without FBS. To evaluate the effect of VGN73 on CHD4 and LANA proteins in tissue culture, IFA and western blotting were carried out, and these gene expressions were evaluated by RT-qPCR. Moreover, BC3 cells were pretreated with pan-caspase inhibitor, Z-VAD-FMK (50 μM) or proteasome inhibitor, bortezomib (25 nM) for 1 hour, followed by treated with VGN73 (18 μM) for 8 hours. BC3 cells were pretreated with lysosome inhibitor, chloroquine (7.5 μM) for 1 hour, followed by treated with VGN73 (18 μM) for 24 hours. […]
To evaluate subcellular peptide localization, IFA was carried out (FIG. 2d). […] The exposure settings and image acquisition protocols were fixed in each imaging study to enable quantitative analysis. Mean LANA and CHD4 fluorescence (measured in arbitrary units, or A.U.) per cell was subsequently calculated using onboard software and/or NIH Image (FIG. 3a(b)). […]

[3] = target: T2, full-length Flag-CHD4 (Homo sapiens, UniProt Q14839); assay: Biolayer interferometry (BLI) binding kinetics of peptides to CHD4; details: N-biotinylated peptides immobilized, sequentially diluted full-length Flag-CHD4
T2 construct: made in house; host or cells: Sf9 (recombinant baculovirus)
T2 sequence (Q14839 whole entry): as above
Description: We next examined peptide binding sites on the CHD4 domain and measured affinity to further confirm the interaction. Multiple CHD4 deletion proteins were expressed and purified from recombinant baculovirus-infected Sf9 cells with Flag-agarose beads (FIG. 7a). An equal molecular amount of recombinant proteins was coated on an ELISA plate and increasing concentrations of biotinylated peptides were incubated. […] Binding affinity to the fill-length CHD4 was also calculated with Bio-Layer Interferometry (BLI). […] The N-biotinylated VGN73 or control peptides were first immobilized on a streptavidin-coated chip, and sequentially diluted full-length Flag-CHD4 proteins were applied. The interaction was then detected with interferometry.
To evaluate of binding kinetics of VGN73 and mutant peptide to CHD4, assays were carried out by biolayer interferometry (BLI) on Octet-Red 384 (ForteBio, CA, USA) at 30° C. with shaking at 1,000 RPM. Streptavidin (SA) tips (Sartorius, Goettingen, Germany) were dipped in 200 μL of biotinylated peptide (VGN73, mutant or TAT) solution (1 μM in 1× kinetic buffer) for the loading step. […] Binding kinetics was evaluated using a 1:1 binding model by ForteBio Data Analysis 8.1 software to obtain the dissociation constant KD.

Row | Compound | rescue from VGN73 cell death by Z-VAD-FMK pretreatment (MTT) ([1]; BC3 and BCBL-1, Z-VAD-FMK 40 μM 1 hr, VGN73 18 or 13 μM) | recovery of full-length CHD4 by inhibitor pretreatment before VGN73 [2] | binding to CHD4 by BLI [3] | cancer cell death in vitro tissue culture [1] | CHD4 cleavage (western blotting, total cell lysates) ([2]; BC3 and BCBL-1 cells, IC50 concentration, 24 hours)
1 | COC(=O)C[C@H](NC(=O)[C@H](C)NC(=O)[C@@H](NC(=O)OCc1ccccc1)C(C)C)C(=O)CF [Z-VAD-FMK] (Cbz-Val-Ala-Asp(OMe)-CH2F) | partially rescued BC3 and BCBL-1 from cell death | recovered full-length CHD4 | – | – | –
2 | CC(C)C[C@H](NC(=O)[C@H](Cc1ccccc1)NC(=O)c1cnccn1)B(O)O [proteasome inhibitor, bortezomib] | – | not a proteasome inhibitor | – | – | –
3 | {d-Arg}KKRR{ORN]RRR{β-Ala} (RKKRRXRRRA; d-Arg, ornithine, beta-Ala non-natural residues; Description of sequence: modified TAT amino acid sequence; SITE 1 d-arginine; MOD_RES 6 ORN; MOD_RES 10 beta-alanine) | – | – | not mutant or TAT alone binds to CHD4 | – | –
4 | {d-Arg}KKRR{ORN}RRR{β-Ala}AKHAVISAGNDPYGLKK ([dR]KKRR[Orn]RRR[βAla]AKHAVISAGNDPYGLKK) [mutant peptide, mutant peptide with three amino acid changes at conserved amino acids] | – | – | mutations eliminated the interaction | not mutant peptide | did not have such effects
